According to patent US12544373B2, “Treatment of cancer, inflammatory diseases and autoimmune diseases” (Usher III Initiative, Inc., priority 2020, dated 2026):
Like-named read-outs stand apart in the source and are kept apart here.

Test system: MAXFHER JIMT-1
Experiment: CellTiter-Blue Cell Viability Assay (Example 2), breast
Type: cell-based, human
Conditions: for T/C %: 72 h
Text: The CellTiter-Blue® Cell Viability Assay was used to assess the viability of cells from various cancer cell lines, in the presence or absence of Compound 85 (at different concentrations). This assay provides a homogeneous, fluorometric method for estimating the number of viable cells present in multi-well plates. Viable cells retain the ability to reduce resazurin to resorufin, which is highly fluorescent. […] The fluorescence produced is proportional to the number of viable cells. There is a linear relationship between cell number and fluorescence.
Cancer cells (see Table 6) were harvested from exponential phase cultures, counted and plated in 96 well flat-bottom microtiter plates, at a cell density 6,000-20,000 cells/well, depending on the cell line's growth rate. The culture medium was supplemented with 10% (v/v) foetal calf serum and 50 μg/mL gentamicin (140 μL/well). Cultures were incubated at 37° C. and 5% CO2 in a humidified atmosphere.
Compound 85 was serially diluted in DMSO, and five Compound 85 concentrations in half-log increments were used: 0.03 μM, 0.09 μM, 0.30 μM, 1.0 μM, and 3.0 μM. After 24 h, 10 μL of Compound 85 (dissolved in DMSO) or control (DMSO) medium were added, in duplicates, and left on the cells for another 72 h. Compound 85 solutions were added to the assay plates using a Tecan Freedom EVO 200 robotic platform. The DMSO concentration was kept constant at 0.3% v/v across the assay plate.
After incubation of up to 72 hours, fluorescence (FU) was measured using the EnSpire® multimode plate reader (Perkin Elmer) (excitation λ=570 nm, emission λ=600 nm).
Cancer cell lines used: Compound 85's anti-cancer effect was tested in 20 human cancer-cell lines representing nine cancer types (Table 6).
The percentage of viable cells in the presence of Compound 85 (Test condition, T), at different concentrations, are presented in Table 7 and expressed as a percentage of the number of viable cells in the presence of DMSO without Compound 85 (Control condition, C).
The relative IC50 is determined as the Compound 85 concentration giving a response halfway between the maximum cell viability signal (i.e., a 100% cell viability, no Compound 85 response) and the minimal viability signal (i.e. maximum cell viability inhibition achieved by Compound 85), in a sigmoidal concentration-effect curve.
The absolute IC50 is determined as the concentration that is associated with a T/C ratio of 50%.

CC(C)(O)Cn1nc(-c2ccccc2)c2c(Cl)c(-c3ccccc3)nnc21 [Compound 85]
Absolute IC70: 957 nM | Relative IC70: 844 nM | T/C % (0.03 μM): 97% | T/C % (0.095 μM): 97% | T/C % (0.3 μM): 96% | T/C % (0.95 μM): 30% | T/C % (3.0 μM): 14% | IC50 (read-out: Absolute IC50): 742 nM | IC50 (read-out: Relative IC50): 702 nM
